Legend:
AgORco+AgOR10 = target: T1, AgORco+AgOR10 (Anopheles gambiae, UniProt Q7QCC7); assay: Fluo-4 Ca2+ imaging, HEK293 cells expressing Orco+AgOR10; assay type: cell-based; set-up: Orco 10 + Orco Angatonist % Reduction / Orco 10 + Orco Agonist % of control: concentration or dose not given beside the values; settings: for Orco 10 + Orco Potentiator % increase: potentiator mode; for Orco 10 + Orco Angatonist % Reduction: antagonist mode
T1 construct: expressed in transfected cells
T1 sequence (Q7QCC7 1-478): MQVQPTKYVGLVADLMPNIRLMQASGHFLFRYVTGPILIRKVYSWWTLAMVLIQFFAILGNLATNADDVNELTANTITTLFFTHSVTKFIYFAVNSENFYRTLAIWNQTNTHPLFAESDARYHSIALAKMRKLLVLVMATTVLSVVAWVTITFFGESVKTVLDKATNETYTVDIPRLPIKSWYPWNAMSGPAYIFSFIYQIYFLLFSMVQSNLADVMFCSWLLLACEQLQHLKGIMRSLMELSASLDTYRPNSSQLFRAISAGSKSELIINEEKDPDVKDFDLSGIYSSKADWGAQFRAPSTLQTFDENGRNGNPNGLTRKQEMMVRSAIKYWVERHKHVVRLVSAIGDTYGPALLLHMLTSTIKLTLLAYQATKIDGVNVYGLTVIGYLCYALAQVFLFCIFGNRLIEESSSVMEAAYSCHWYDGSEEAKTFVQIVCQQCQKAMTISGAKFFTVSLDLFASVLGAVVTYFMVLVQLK
Excerpt: (§1) For transient transfections, ORs were cloned into pCl (Promega) and transfected into Flp-In™ T-REx™293 cell lines (Invitrogen) with Fu GENE6 (Roche). For the creation of stable cell lines, a cell culture expression vector capable of expressing Orco in conjunction with a conventional OR, pcDNA5/FRT/TO (Invitrogen) was modified to create two individual expression cassettes each under the control of a separate CMV/Tet02 promoter and a BGH poly-adenylation signal. Cells (as above) were transfected with the modified pcDNA5 plasmid along with POG44 (a Flp recombinase expression plasmid) to facilitate site-specific recombination. Stable cell lines were selected using Hygromycin B (Invitrogen). Cells were maintained in DMEM (Invitrogen) supplemented with 10% Tetracycline-free FBS (HyClone) and 15 ng/ml Blasticidin. For fluorometric Ca2+ measurements, stable lines expressing ORs of interest were seeded at 20,000 cells/well in black wall, poly-lysine coated 384-well cell culture plates (Greiner) and treated with […] tetracycline (Sigma) overnight to induce OR expression. Cells were dye-loaded with 1.8 uM Fluo-4 AM (Molecular Probes), 2.5 mM Probenecid (Molecular Probes) in assay buffer (20 mM HEPES, IX HBSS) for 45 minutes at 37° C. in 5% CO2 prior to each assay. Ca^2+ mobilization was assayed in an FDSS6000 (Hamamatsu). Baseline readings were taken for 20 s before automated addition of compound previously diluted in DMSO and assay buffer. Ratios were described as Maximum/Minimum response and each response was normalized to the maximum responder.
As part of an ongoing, cell based calcium imaging screen for novel small-molecule modulators of AgORs that might disrupt olfactory-driven mosquito behaviors (Rinker et al manuscript in preparation), the inventors identified a number of compounds that activated AgOR10+AgORco-expressing human embryonic kidney (HEK293) cells. One of these compounds, (FIG. 3 A) denoted here as VUAA1, elicited activity consistent with allosteric agonism and was pursued for its novel properties. The identity of VUAA1 was verified using high-resolution mass spectrometry (HRMS) as well as ^1H and ^13C NMR. […] As AgORco was the common element among these functional responses, the inventors postulated that VUAA1 was a potential AgORco agonist.

AgORco+AgOR48 = target: T2, AgORco+AgOR48 (Anopheles gambiae, UniProt Q7QCC7); assay: Ca2+ imaging, HEK cells expressing AgORco+AgOR48; assay type: cell-based; settings: Orco + 48, agonist; for EC50: read-out: Orco + 48 Agonist EC50
T2 construct: expressed in transfected cells
T2 sequence (Q7QCC7 1-478): T1 sequence (Q7QCC7 1-478)
Excerpt: as §1
The ability of VUAA1 and its analogs to agonize representative ORco proteins from dipteran (Anopheles gambiae, AgORco), lepidopteran (Heliothis virescens, HvORco) and hymenopteran (Harpegnathos saltator, HsORco) orders was tested. […] Furthermore, the hierarchy of VUAA series potency was the same, irrespective of whether AgORco was co-expressed with AgOR65 or AgOR48 tuning ORs (FIG. 45). Without wishing to be bound by a particular theory, odorant ligands are thought to activate the complex via interaction with the tuning ORx and thereby affect ORco/ORx channel properties. […] These findings indicate VUAA-class OR co-modulators are viable compounds for further development as broad-spectrum insect control strategies, and VUAA4 can provide an advance in the pharmacological profile of VUAA-based compounds.

Compound	Orco 10 + Orco Angatonist % Reduction (AgORco+AgOR10; Orco 10 + Orco) [%]	further results
CCc1cccc(CC)c1NC(=O)CSc1nnc(C(C)C)n1CC		Orco 10 + Orco Potentiator % increase (AgORco+AgOR10; 10 + Orco): 13.90%
CCn1c(SCCC(=O)O)nnc1-c1cccnc1		Orco 10 + Orco Potentiator % increase (AgORco+AgOR10; 10 + Orco): 15.74%
CCCn1c(SCC(=O)NCCc2ccccc2)nnc1-c1cccnc1		Orco 10 + Orco Potentiator % increase (AgORco+AgOR10; 10 + Orco): 12.58%
C=CCn1c(SCc2cccc3ccccc23)nnc1-c1cccnc1	13.43	
C=CCn1c(SCc2nc(N)nc(N(C)C)n2)nnc1-c1cccnc1		Orco 10 + Orco Potentiator % increase (AgORco+AgOR10; Orco 10 + Orco): 17.15%
O=C(CSc1nnc(-c2cccnc2)n1Cc1ccco1)c1ccc(Br)cc1	7.93	
CCOC(=O)c1c(NC(=O)CSc2nnc(-c3cccnc3)n2Cc2ccco2)sc(C)c1C	30.44	
Fc1ccc(CSc2nnc(-c3cccnc3)n2Cc2ccco2)cc1	16.64	
Clc1ccccc1CSc1nnc(-c2cccnc2)n1Cc1ccco1	33.76	
COc1cc(Cl)c(C)cc1CSc1nnc(-c2cccnc2)n1Cc1ccco1	28.40	
Clc1ccc(CSc2nnc(-c3cccnc3)n2Cc2ccco2)c(Cl)c1	49.50	
O=C(CSc1nnc(-c2cccnc2)n1-c1ccccc1)c1c[nH]c2ccccc12		Orco 10 + Orco Potentiator % increase (AgORco+AgOR10; Orco 10 + Orco): 13.63%
O=C(CSc1nnc(-c2cccnc2)n1-c1ccccc1)NCc1ccc2c(c1)OCO2		Orco 10 + Orco Potentiator % increase (AgORco+AgOR10; Orco 10 + Orco): 16.29%
N#Cc1ccc(CSc2nnc(-c3cccnc3)n2-c2ccccc2)cc1	20.08	
Cc1ccc(Nc2nc(CSc3nnc(-c4cccnc4)n3-c3ccccc3F)cs2)cc1	47.91	
c1ccc(CSc2nnc(-c3cccnc3)n2Cc2ccccc2)cc1	16.73	
Cc1ccccc1-n1c(SC(C)C(N)=O)nnc1-c1cccnc1 (centres unmarked)		Orco 10 + Orco Potentiator % increase (AgORco+AgOR10; Orco 10 + Orco): 16.98%
Cc1ccccc1-n1c(SCc2csc(Nc3ccccc3)n2)nnc1-c1cccnc1	56.98	
Cc1ccc(Nc2nc(CSc3nnc(-c4cccnc4)n3-c3ccccc3C)cs2)cc1	52.47	
O=C(CSc1nnc(-c2cccnc2)n1-c1ccc(SC(F)F)cc1)N1CCCc2ccccc21	24.77	
CCOc1ccc(-n2c(SCc3cc(=O)oc4cc(C)c(C(C)C)cc34)nnc2-c2cccnc2)cc1	48.28	

Compound	Orco 10 + Orco Angatonist % Reduction (AgORco+AgOR10; Orco 10 + Orco) [%]	further results
CCOc1ccc(-n2c(SCc3cc(=O)oc4cc(C)ccc34)nnc2-c2cccnc2)cc1	12.48	
CCOc1ccccc1-n1c(SCC(=O)N2CCCc3ccccc32)nnc1-c1cccnc1	29.87	
Cc1ccc(-n2c(SCC(=O)NCc3ccc4c(c3)OCO4)nnc2-c2cccnc2)c(C)c1	31.14	
Cc1ccc(-n2c(SCC(=O)N3CCCc4ccccc43)nnc2-c2cccnc2)c(C)c1	26.04	
Cc1ccc(-n2c(SCC(=O)NCc3ccco3)nnc2-c2cccnc2)c(C)c1	15.51	
CC(C)c1ccccc1-n1c(SCC(=O)N2CCN(c3ccccc3)CC2)nnc1-c1cccnc1	42.29	
CC(C)c1ccccc1-n1c(SCc2cc(=O)oc3ccc4ccccc4c23)nnc1-c1cccnc1	26.15	
CCc1ccc(NC(=O)CSc2nnc(-c3ccncc3)n2C2CC2)cc1		EC50 (AgORco+AgOR48): 13 µM
CCCn1c(SCC(=O)Nc2ccc(C(C)C)cc2)nnc1-c1ccncc1		EC50 (AgORco+AgOR48): 19 µM
CCOC(=O)CN(C(=O)CSc1nnc(CNc2ccc(C)cc2C)n1CC)c1ccccc1	57.34	
CCn1c(CNc2ccc(F)cc2)nnc1SCC(=O)N1CCCc2ccccc21	18.47	
CCOC(=O)c1cccc(NC(=O)CSc2nnc(CNc3ccc(C)cc3)n2CC)c1	62.21	
CCOC(=O)CN(C(=O)CSc1nnc(CNc2ccc(F)cc2)n1CC)c1ccc(F)cc1	8.24	
CCn1c(CNC(=O)COc2ccc(C(C)C)cc2)nnc1SCC(=O)Nc1cc(F)ccc1C	31.15	
CCn1c(CNC(=O)COc2ccc(C(C)C)cc2)nnc1SCC(=O)Nc1ccccc1C(C)C	44.74	
CCn1c(CNC(=O)c2ccco2)nnc1SCC(=O)Nc1cc(C(F)(F)F)ccc1Cl	15.97	
CCn1c(COc2ccccc2)nnc1SCC(=O)Nc1cc(OC)ccc1OC	38.62	
CCn1c(COc2cccc(OC)c2)nnc1SCC(=O)Nc1ccccc1C(=O)OC	72.23	
CCn1c(COc2cccc(OC)c2)nnc1SCC(=O)Nc1cc(OC)ccc1OC	30.79	
CCn1c(CNC(=O)COc2ccc(C(C)C)cc2)nnc1SCC(=O)Nc1ccccc1	13.06	
CCn1c(CNC(=O)COc2ccc(C(C)C)cc2)nnc1SCC(=O)Nc1ccccc1F	11.35	

Compound	Orco 10 + Orco Angatonist % Reduction (AgORco+AgOR10; Orco 10 + Orco) [%]	further results
CCn1c(COc2ccc(OC)cc2)nnc1SCC(=O)Nc1cc(OC)ccc1OC	7.54	
CCn1c(COc2ccc(C)cc2)nnc1SCC(=O)Nc1cc(OC)ccc1OC	59.64	
CCOC(=O)CN(C(=O)CSc1nnc(COc2ccc(OC)cc2)n1CC)c1ccccc1	49.09	
CCn1c(COc2ccc3c(c2)CCCC3)nnc1SCC(=O)Nc1ccc(C(=O)OC)cc1		Orco 10 + Orco Potentiator % increase (AgORco+AgOR10; Orco 10 + Orco): 18.19%
COc1cc(Cl)c(C)cc1NC(=O)CSc1nnc(-c2cccnc2)n1Cc1ccco1	25.31	
CCn1c(SCC(=O)Nc2ccc3c(c2)OCCO3)nnc1-c1c[nH]c2ccccc12	17.90	
CCn1c(SCC(=O)Nc2cc(C)ccc2C)nnc1-c1cnccn1		Orco 10 + Orco Potentiator % increase (AgORco+AgOR10; Orco 10 + Orco): 21.48%
CCn1c(SCC(=O)Nc2ccc(N(C)C)cc2)nnc1-c1cccc(C)c1	29.54	
CCn1c(SCC(=O)Nc2ccccc2C(=O)OC)nnc1-c1cccc(C)c1	16.03	
CCn1c(SCC(=O)N2c3ccccc3CCc3ccccc32)nnc1-c1ccc(OC)cc1	41.48	
CCN(CC)S(=O)(=O)c1ccc(-c2nnc(SCC(=O)N3c4ccccc4CC3C)n2CC)cc1 (centres unmarked)	31.53	
CCn1c(SCC(=O)Nc2ccc(OC)cc2)nnc1-c1ccc2[nH]c(C)c(C)c2c1	24.94	
CCn1c(SCC(=O)N2c3ccccc3CCc3ccccc32)nnc1-c1ccco1	13.40	
CCn1c(SCC(=O)Nc2ccc(OCc3ccccc3)cc2)nnc1-c1ccco1	28.44	
CCc1ccc(NC(=O)CSc2nnc(-c3cccs3)n2CC)cc1	32.93	
CCn1c(SCC(=O)Nc2ccc(C(C)C)cc2)nnc1-c1cc[nH]c1		EC50 (AgORco+AgOR48): 13.7 µM; Orco + 48 Agonist % value Of VUAA1 (AgORco+AgOR48; relative to VUAA1): Poor
CCn1c(SCC(=O)Nc2ccc(C(C)C)cc2)nnc1-c1cncs1		EC50 (AgORco+AgOR48): 16.8 µM
O=C(CSc1nnc(-c2cccnc2)n1Cc1ccco1)N1c2ccccc2Sc2ccccc21 [drawing 490]	46.34	
O=C(CSc1nnc(-c2cccnc2)n1Cc1ccco1)N1c2ccccc2Sc2ccccc21 [drawing 497]	53.70	
